# Patent publication US20110105509A1 (Wyeth, LLC, priority 2009, published 2011)
# Target: T1, CRTH2 (Homo sapiens, UniProt Q9Y5Y4)
# T1 construct: expressed in transfected cells; host or cells: CHO cells
# T1 sequence (Q9Y5Y4 1-395): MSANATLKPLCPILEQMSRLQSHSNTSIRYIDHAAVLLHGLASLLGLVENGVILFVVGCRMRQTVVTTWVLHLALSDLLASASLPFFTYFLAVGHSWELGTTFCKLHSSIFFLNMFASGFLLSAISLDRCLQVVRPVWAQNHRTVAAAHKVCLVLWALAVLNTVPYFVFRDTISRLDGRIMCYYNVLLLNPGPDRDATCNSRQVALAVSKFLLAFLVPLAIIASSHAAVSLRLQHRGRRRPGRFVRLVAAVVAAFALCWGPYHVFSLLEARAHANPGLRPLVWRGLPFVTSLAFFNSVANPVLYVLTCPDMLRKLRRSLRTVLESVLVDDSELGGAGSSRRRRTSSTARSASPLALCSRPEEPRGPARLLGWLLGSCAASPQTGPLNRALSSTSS
# Assay: FRET based competitive immunoassay (cAMP) in CRTH2 expressing CHO cells
# Type: cell-based
# Details: CRTH2 expressing CHO cells incubated with forskolin and PGD2; Eu3+ cryptate-labeled anti-cAMP and d2-labeled cAMP
# Protocol: FRET Assay: To evaluate potency compounds were tested in a FRET based competitive immunoassay in which CRTH2 expressing CHO cells were incubated in the presence of forskolin and PGD2 along with Eu3+ cryptate-labeled anti-cAMP and d2-labeled cAMP.
row,IC50,SMILES
1,45 nM,"Cc1c(-c2ccc(=O)n(Cc3ccc(F)cc3)n2)c2ccccc2n1CC(=O)O [Example 189, 2-(3-(1-(4-fluorobenzyl)-6-oxo-1,6-dihydropyridazin-3-yl)-2-methyl-1H-indol-1-yl)acetic acid]"
2,867 nM,"Cc1c(-c2ccc(=O)n(Cc3ccccc3F)n2)c2ccccc2n1CC(=O)O [Example 190, 2-(3-(1-(2-fluorobenzyl)-6-oxo-1,6-dihydropyridazin-3-yl)-2-methyl-1H-indol-1-yl)acetic acid]"
3,64 nM,"Cc1ccc2c(c1)c(-c1ccc(=O)n(Cc3ccccc3)n1)c(C)n2CC(=O)O [Example 191, 2-(3-(1-benzyl-6-oxo-1,6-dihydropyridazin-3-yl)-2,5-dimethyl-1H-indol-1-yl)acetic acid]"
4,4 nM,"Cc1ccc2c(c1)c(-c1nn(Cc3ccccc3)c(=O)c3ccccc13)c(C)n2CC(=O)O [Example 192, 2-(3-(3-Benzyl-4-oxo-3,4-dihydrophthalazin-1-yl)-2,5-dimethyl-1H-indol-1-yl)acetic acid]"
5,18 nM,"Cc1c(Cc2ccc(=O)n(Cc3ccccn3)n2)c2cc(F)ccc2n1CC(=O)O [Example 196, 2-(5-fluoro-2-methyl-3-((6-oxo-1-(pyridin-2-ylmethyl)-1,6-dihydropyridazin-3-yl)methyl)-1H-indol-1-yl)acetic acid]"
6,19 nM,"Cc1c(-c2nn(Cc3ccccc3C(F)(F)F)c(=O)c3ccccc23)c2cc(Cl)ccc2n1CC(=O)O [Example 199, 2-(5-chloro-2-methyl-3-(4-oxo-3-(2-(trifluoromethyl)benzyl)-3,4-dihydrophthalazin-1-yl)-1H-indol-1-yl)acetic acid]"

# Further lines, the molecule ahead of its results:
row,SMILES,IC50
1,"Cc1c(Cc2ccc(=O)n(Cc3cc(F)c(F)cc3F)n2)c2cc(F)ccc2n1CC(=O)O [Example 193, 2-(5-fluoro-2-methyl-3-((6-oxo-1-(2,4,5-trifluorobenzyl)-1,6-dihydro-pyridazin-3-yl)methyl)-1H-indol-1-yl)acetic acid]",8 nM
2,"Cc1c(Cc2ccc(=O)n(Cc3ccncc3)n2)c2cc(F)ccc2n1CC(=O)O [Example 194, 2-(5-fluoro-2-methyl-3-((6-oxo-1-(pyridin-4-ylmethyl)-1,6-dihydro-pyridazin-3-yl)methyl)-1H-indol-1-yl)acetic acid]",98 nM
3,"Cc1c(Cc2ccc(=O)n(Cc3cccnc3)n2)c2cc(F)ccc2n1CC(=O)O [Example 195, 2-(5-fluoro-2-methyl-3-((6-oxo-1-(pyridin-3-ylmethyl)-1,6-dihydropyridazin-3-yl)methyl)-1H-indol-1-yl)acetic acid]",12 nM
4,"Cc1c(Cc2ccc(=O)n(CC(C)(C)O)n2)c2cc(F)ccc2n1CC(=O)O [Example 197, (5-fluoro-3-{[1-(2-hydroxy-2-methylpropyl)-6-oxo-1,6-dihydropyridazin-3-yl]-methyl}-2-methyl-1H-indol-1-yl)acetic acid]",270 nM
5,"Cc1c(-c2nn(Cc3ccc(C(F)(F)F)cc3)c(=O)c3ccccc23)c2cc(Cl)ccc2n1CC(=O)O [Example 198, 2-(5-Chloro-2-methyl-3-(4-oxo-3-(4-(trifluoromethyl)benzyl)-3,4-dihydrophthalazin-1-yl)-1H-indol-1-yl)acetic acid]",46 nM
6,"Cc1c(-c2nn(Cc3cccc(C(F)(F)F)c3)c(=O)c3ccccc23)c2cc(Cl)ccc2n1CC(=O)O [Example 200, 2-(5-Chloro-2-methyl-3-(4-oxo-3-(3-(trifluoromethyl)benzyl)-3,4-dihydro-phthalazin-1-yl)-1H-indol-1-yl)acetic acid]",45 nM
7,"Cc1c(Cc2ccc(=O)n(CC(O)(C(F)(F)F)C(F)(F)F)n2)c2cc(F)ccc2n1CC(=O)O [Example 201, [5-fluoro-2-methyl-3-({6-oxo-1-[3,3,3-trifluoro-2-hydroxy-2-(trifluoromethyl)-propyl]-1,6-dihydro-pyridazin-3-yl}methyl)-1H-indol-1-yl]acetic acid]",22 nM
